Experimental data reported in US6376169B1, “Method for diagnosing a vascular condition” (Queens University at Kingston, priority 1998, dated 2002).

What was measured:
[1] = tested on: MDA-MB-231 cells; assay: In vitro invasion of MDA-MB-231 cells through Matrigel; type: cell-based, human; conditions: 1% O2 + 30% CO
Description: In vitro invasion assay. An assay which employs reconstituted basement membrane (Matrigel; Collaborative Biomedical Products, Bedford, Mass.) as the substrate for invasion was used to determine the effect of hypoxia on the invasiveness of tumor cells. Costar Transwell inserts (6.5 mm diameter polycarbonate membrane, 8 μm pore; Corning Costar Corp., Cambridge, Mass.) were coated with 100 μl of a 1 mg/ml solution of Matrigel diluted in cold serum-free culture medium, placed in the wells of a 24-well tissue culture plate and allowed to air-dry for 12 h in a laminar flow cabinet. After reconstituting the Matrigel by incubating for 1 h with 100 μl of serum-free medium, 5.0×10^4 cells in 100 μl aliquots of serum-containing medium were added to the Transwells. Following a 24-h incubation under either 20% or 1% O2 in the absence or presence of 10 μg/ml blocking anti-uPAR antibody (3936), or under 1% O2+30% CO (to assess the role of a heme protein on invasion), cells on the surface of the Matrigel-coated polycarbonate membrane (non-invading cells) were removed by scraping with a cotton swab. […] The invasion index' was then determined by counting, under a microscope, the total number of stained cells in the underside of the polycarbonate membranes.

[2] = tested on: uPAR; assay: uPAR protein and mRNA in cancer cells (Example 1); type: cell-based; conditions: 24 hours, standard conditions; 100 μM cobalt chloride; Tiron

SMILES | effect on hypoxia-mediated increase in invasiveness [1] | uPAR protein and mRNA levels [2]
[C-]#[O+] [carbon monoxide] | completely abrogated | –
[Cl][Co][Cl] [cobalt chloride] | – | elevated uPAR protein and mRNA levels
